Consider twelve compounds from ChEMBL document CHEMBL1201862, “PubChem BioAssay data set” (2004).

Test systems include SF-295; NCI-H522; SF-539; KM-20L2; SN12C; NCI-H226; HOP-62; HCC 2998; CAKI-1; HOP-92; OVCAR-4; UACC-257; SNB-19; SK-MEL-5; SR; EKVX; NCI-H23; OVCAR-5.
Holding throughout (experiment): NCI anticancer screen, dose series, 48 h

The structures appear in SMILES notation.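 Interpolation was linear, between the two tested concentrations surrounding the appropriate level; five concentrations were tested over 48 hours in 96-well plates. Here, GI50 denotes the concentration required for 50% inhibition of growth.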 Active and inactive are the calls of the source. No stated cut-off is given here; in the data, active = GI50 up to about 1.1 µM and inactive = higher.

With `C=CCO[C@H]1CC[C@@]2(C)C(CC[C@]3(C)C2CC=C2[C@@H]4[C@@H](C)C(C)CC[C@]4(C(=O)O)CCC23C)C1(C)C` (stereo not given in full), the GI50 was 14.2 µM (inactive) in the test on SF-295; 13.2 µM (inactive) in the test with NCI-H522; 17 µM (inactive) with SF-539; 17.3 µM (inactive) in the test with KM-20L2; 13.6 µM (inactive) in the test on SN12C; 18.6 µM (inactive) in the test on NCI-H226. Besides, the GI50 in the test with HOP-62 was 22.1 µM (inactive); with HCC 2998, 17.1 µM (inactive); with CAKI-1 it was 17.9 µM (inactive); in the test with HOP-92, 16.3 µM (inactive); with OVCAR-4 it was 17.6 µM (inactive); with UACC-257 it was 16.9 µM (inactive). The GI50 in the test with SNB-19 is 17.1 µM (inactive); with SK-MEL-5, 16.5 µM (inactive); in the test on SR, 13.8 µM (inactive); with EKVX it was 21.2 µM (inactive); in the test with NCI-H23, 14.9 µM (inactive).
Take `CN(C)CCONC(=O)C12CC3CC(CC(C3)C1)C2`: the GI50 in the test on SF-295, in the test on OVCAR-5, with NCI-H522, in the test with SF-539, with KM-20L2 and in the test with SN12C was > 100 µM (inactive) throughout. For the same compound, the GI50 with NCI-H226, with HOP-62, in the test on CAKI-1, with HOP-92, in the test on UACC-257 and in the test with SNB-19 was > 100 µM (inactive) throughout. For the same compound, the GI50 in the test on SK-MEL-5, in the test with SR, with EKVX and in the test on NCI-H23 was > 100 µM (inactive) each time.
Consider `CCc1cccc(C(C)CC)c1/N=C(/NC(=O)c1ccccc1C(=O)N/C(=N/c1c(CC)cccc1C(C)CC)SC)SC` (stereo not given), for which the GI50 in the test on SF-295 is 37.4 µM (inactive); with OVCAR-5, 60.1 µM (inactive); in the test on NCI-H522, 28.2 µM (inactive); in the test on SF-539 it was 26.5 µM (inactive); in the test on KM-20L2, 28.4 µM (inactive); in the test with SN12C, 40.1 µM (inactive). In addition, the GI50 was 17.7 µM (inactive) in the test with NCI-H226; 31.1 µM (inactive) in the test with HOP-62; 49.8 µM (inactive) with HCC 2998; 42.2 µM (inactive) with CAKI-1; 10.5 µM (inactive) in the test on HOP-92; 54.3 µM (inactive) in the test with OVCAR-4. Also, the GI50 in the test on UACC-257 is 54.3 µM (inactive); in the test with SNB-19, 49.8 µM (inactive); in the test on SR, 39.6 µM (inactive); in the test with EKVX, 35.6 µM (inactive); with NCI-H23, 31.9 µM (inactive).
Turning to `CCOc1ccccc1NC(=O)C(=O)c1c(O)c2ccc(O)cc2oc1=O`, the GI50 with SF-295, in the test with OVCAR-5, in the test on NCI-H522, in the test with SF-539, in the test with KM-20L2 and in the test with SN12C was > 100 µM (inactive) in each case. In addition, the GI50 with NCI-H226, in the test on HOP-62, in the test with HCC 2998, in the test on CAKI-1, with OVCAR-4 and in the test with UACC-257 was > 100 µM (inactive) throughout. For the same compound, the GI50 with SNB-19, in the test with SK-MEL-5, in the test with SR, with EKVX and in the test on NCI-H23 was > 100 µM (inactive) each time.
Consider `COc1cc(OC)c2c(c1)C(=O)C(CC(C)O)=CC2=O` (stereo not given), for which the GI50 was 14.2 µM (inactive) with SF-295; 18.4 µM (inactive) in the test with OVCAR-5; 14.4 µM (inactive) in the test on NCI-H522; 18.4 µM (inactive) with SF-539; 17.2 µM (inactive) in the test on KM-20L2; 18.7 µM (inactive) in the test on SN12C. Besides, the GI50 is 20.8 µM (inactive) with NCI-H226; 19.4 µM (inactive) in the test on HOP-62; 28.6 µM (inactive) in the test with HCC 2998; 20.1 µM (inactive) in the test on CAKI-1; 11.1 µM (inactive) in the test on HOP-92; 17.8 µM (inactive) with OVCAR-4. The GI50 with UACC-257 was 16.6 µM (inactive); in the test with SNB-19, 17.7 µM (inactive); with SK-MEL-5, 14.7 µM (inactive); in the test on SR, 2 µM (inactive); with EKVX, 12 µM (inactive); in the test on NCI-H23, 19.7 µM (inactive).
Consider `CN(C)/N=C(/c1nc2ccc([N+](=O)[O-])cc2nc1O)C(O)c1ccco1` (stereo not given), for which the GI50 in the test on SF-295 was > 100 µM (inactive); with OVCAR-5, > 100 µM (inactive); in the test with NCI-H522, 8.57 µM (inactive); in the test on SF-539 it was > 100 µM (inactive); in the test with KM-20L2, 21 µM (inactive); with SN12C it was > 100 µM (inactive). The GI50 in the test with NCI-H226 was > 100 µM (inactive); in the test on HOP-62, 72.1 µM (inactive); in the test on HCC 2998, 53 µM (inactive); with CAKI-1, 48.1 µM (inactive); with HOP-92, > 100 µM (inactive); with OVCAR-4, > 100 µM (inactive). In addition, the GI50 was > 100 µM (inactive) with UACC-257; > 100 µM (inactive) in the test on SNB-19; 70.1 µM (inactive) with SK-MEL-5; > 100 µM (inactive) in the test on SR; > 100 µM (inactive) in the test with NCI-H23.
On to `CCCC(C)n1c(C)nc2c1C(=O)c1ccccc1C2=O` (stereo not given), for which the GI50 in the test with SF-295 is 23.7 µM (inactive); in the test with NCI-H522 it was 23.1 µM (inactive); with SF-539, 13 µM (inactive); in the test with KM-20L2, 18.9 µM (inactive); in the test with SN12C, 29.9 µM (inactive); with NCI-H226 it was 34.4 µM (inactive). The GI50 was 20 µM (inactive) with HOP-62; 40.4 µM (inactive) with HCC 2998; 16.7 µM (inactive) with HOP-92; 36.1 µM (inactive) with OVCAR-4; 22.4 µM (inactive) in the test with UACC-257; 37 µM (inactive) in the test on SNB-19. Also, the GI50 was 13.3 µM (inactive) in the test on SK-MEL-5, > 100 µM (inactive) in the test on SR, 43.6 µM (inactive) in the test with EKVX and 15.6 µM (inactive) in the test with NCI-H23.
With `CCCCCC(=O)N[C@H]1CCc2cc(OC)c(OC)c(OC)c2-c2ccc(SC)c(=O)cc21`, the GI50 in the test on SF-295 was 0.0155 µM (active); in the test on OVCAR-5, 47.3 µM (inactive); in the test with SF-539 it was 0.0158 µM (active); with KM-20L2, 0.0154 µM (active); in the test on SN12C, 0.0315 µM (active); with NCI-H226, < 0.01 µM (active). The GI50 was 0.032 µM (active) with HOP-62; 0.0212 µM (active) in the test on HCC 2998; 0.0914 µM (active) with CAKI-1; < 0.01 µM (active) with HOP-92; 17.5 µM (inactive) in the test on OVCAR-4; < 0.01 µM (active) in the test on UACC-257. The GI50 with SNB-19 was 0.0258 µM (active); with SK-MEL-5 it was 0.014 µM (active); in the test on SR, 0.00421 µM (active); with EKVX, 0.0395 µM (active); in the test on NCI-H23 it was < 0.01 µM (active).
With `C/C(=C\c1ccccc1)C(O)S(=O)(=O)O` (stereo not given), the GI50 in the test with SF-295, with OVCAR-5, with NCI-H522, with KM-20L2, with SN12C and with NCI-H226 was > 100 µM (inactive) throughout. For the same compound, the GI50 in the test with HOP-62, in the test with HCC 2998, in the test on CAKI-1, in the test on OVCAR-4, in the test with UACC-257 and in the test with SNB-19 was > 100 µM (inactive) each time. The GI50 in the test on SK-MEL-5, in the test on SR, with EKVX and with NCI-H23 was > 100 µM (inactive) each time.
Take `Cc1nc2c(n1CCN(C)C)C(=O)c1ccccc1C2=O`: the GI50 in the test on SF-295 is 15.7 µM (inactive); in the test with NCI-H522, 5.38 µM (inactive); in the test on SF-539, 19.1 µM (inactive); with KM-20L2 it was 6.31 µM (inactive); with SN12C, 16.6 µM (inactive); with NCI-H226, 31.6 µM (inactive). For the same compound, the GI50 in the test on HOP-62 is 26.9 µM (inactive); in the test with HCC 2998 it was 19.7 µM (inactive); with OVCAR-4 it was 15.6 µM (inactive); with UACC-257 it was 14 µM (inactive); in the test on SNB-19, 27.7 µM (inactive); in the test with SK-MEL-5, 7.45 µM (inactive). The GI50 is 11.7 µM (inactive) in the test on SR, 17.9 µM (inactive) with EKVX and 12.1 µM (inactive) in the test on NCI-H23.
For `COC(=O)CCC(NC(=S)N/N=C(\C)c1ccccn1)C(=O)OC` (stereo not given), the GI50 in the test on SF-295 was 59.2 µM (inactive); in the test on OVCAR-5 it was 25.9 µM (inactive); in the test on NCI-H522, 33.3 µM (inactive); with SF-539, 85.7 µM (inactive); with KM-20L2 it was 32.4 µM (inactive); in the test on SN12C, 89.1 µM (inactive). The GI50 is 60.7 µM (inactive) in the test on NCI-H226; 57.3 µM (inactive) with HOP-62; > 100 µM (inactive) with HCC 2998; 41.7 µM (inactive) in the test with HOP-92; > 100 µM (inactive) in the test with OVCAR-4; 97.5 µM (inactive) in the test with UACC-257. Moreover, the GI50 in the test with SNB-19 was > 100 µM (inactive); in the test with SK-MEL-5, 40.5 µM (inactive); in the test on SR it was > 10 µM (inactive); in the test with EKVX, 43.6 µM (inactive); with NCI-H23 it was > 100 µM (inactive).
Regarding `Cc1ccc(S(=O)(=O)N/N=C/c2oc(-c3ccncc3)c(-c3ccncc3)c2[N+](=O)[O-])cc1`, the GI50 with SF-295, with OVCAR-5, with NCI-H522, with SF-539, in the test on KM-20L2 and in the test on SN12C was > 100 µM (inactive) in each case. For the same compound, the GI50 with NCI-H226, with HOP-62, in the test with HCC 2998, with CAKI-1, in the test with OVCAR-4 and with UACC-257 was > 100 µM (inactive) throughout. Besides, the GI50 in the test with SNB-19, in the test on SK-MEL-5, with SR, with EKVX and in the test on NCI-H23 was > 100 µM (inactive) each time.
